Patent EP0662975B1, “2-SUBSTITUTED ADENOSINES WITH A-2 RECEPTOR AFFINITY” (priority 1992, dated 1994)

Columns and labels:
adenosine A-2 receptors = target: T1, adenosine A-2 receptors (Rattus norvegicus, UniProt P30543); experiment: Test for affinity for brain adenosine A-2 receptors ([3H]NECA competition, striatal membranes); type: binding; settings: for Ki: rat brain striatum membranes, [3H]NECA, read-out: A-2 Receptor Ki; for A-1 Ki/A-2 Ki: ratio of A-1 Ki to A-2 Ki (selectivity)
T1 construct: from tissue; host or cells: striatal membranes of young male C-D rats (Charles River)
T1 sequence (P30543 whole entry): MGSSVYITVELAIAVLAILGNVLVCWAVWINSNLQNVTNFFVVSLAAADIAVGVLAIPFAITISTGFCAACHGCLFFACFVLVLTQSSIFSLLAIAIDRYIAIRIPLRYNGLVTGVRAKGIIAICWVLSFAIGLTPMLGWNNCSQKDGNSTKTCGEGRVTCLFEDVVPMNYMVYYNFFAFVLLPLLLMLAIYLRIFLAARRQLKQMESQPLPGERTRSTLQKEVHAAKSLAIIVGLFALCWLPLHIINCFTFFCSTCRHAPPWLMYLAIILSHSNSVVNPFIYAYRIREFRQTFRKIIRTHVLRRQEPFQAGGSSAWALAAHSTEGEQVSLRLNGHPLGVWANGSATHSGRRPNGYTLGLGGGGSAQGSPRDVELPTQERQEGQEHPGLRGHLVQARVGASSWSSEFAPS
Source text: The test described below was used to determine the potency of test compounds to compete with the ligand [3H]-5'-N-ethyl-carboxamidoadenosine (NECA) for the adenosine A-2 receptors prepared from animal brain membranes. (See also R.R. Bruns, G.H. Lu, and T.A. […] Pharmacol., 29, 331-346 (1986).) Young male rats (C-D strain), obtained from Charles River, are killed by decapitation and the brains are removed. Membranes for ligand binding are isolated from rat brain striatum. The tissue is homogenized in 20 vol ice-cold 50 mM Tris-HCl buffer (pH 7.7) using a polytron (setting for 6 to 20 seconds). The homogenate is centrifuged at 50,000 x g for 10 minutes at 4°C. The pellet is again homogenized in a polytron in 20 vol of buffer, and centrifuged as before. The pellet is finally resuspended in 40 vol of 50 mM Tris-HCl (pH 7.7) per gram of original wet weight of tissue. […] Incubations are carried out at 25°C for 60 minutes. Each tube is filtered through GF/B glass fiber filters using a vacuum. The filters are rinsed two times with 5 ml of the ice-cold buffer. The membranes on the filters are transferred to scintillation vials to which 8 ml of Omnifluor with 5% Protosol is added. The filters are counted by liquid scintillation spectrometry. Specific binding of [3H]NECA is measured as the excess over blanks run in the presence of 100 µM 2-chloroadenosine. Total membrane-bound radioactivity is about 2.5% of that added to the test tubes. […] Specific binding to membranes is about 50% of the total bound. Protein content of the membrane suspension is determined by the method of O.H. Lowry, N.J. Rosebrough, A.L. Farr and R.J. Randall, Protein Measurements With Folin Phenol Reagent, J. Biol. Chem., 193, 265-275 (1951).

Adenosine A-1 receptor = target: T2, Adenosine A-1 receptor (Rattus norvegicus, UniProt P25099); experiment: Test for affinity for brain adenosine A-1 receptor binding sites ([3H]cyclohexyladenosine competition); settings: rat brain membranes, [3H]cyclohexyladenosine 0.8 nM
T2 construct: the membranes are isolated from whole animal brains; from tissue; host or cells: whole brain membranes of male Sprague-Dawley rats
T2 sequence (P25099 1-326): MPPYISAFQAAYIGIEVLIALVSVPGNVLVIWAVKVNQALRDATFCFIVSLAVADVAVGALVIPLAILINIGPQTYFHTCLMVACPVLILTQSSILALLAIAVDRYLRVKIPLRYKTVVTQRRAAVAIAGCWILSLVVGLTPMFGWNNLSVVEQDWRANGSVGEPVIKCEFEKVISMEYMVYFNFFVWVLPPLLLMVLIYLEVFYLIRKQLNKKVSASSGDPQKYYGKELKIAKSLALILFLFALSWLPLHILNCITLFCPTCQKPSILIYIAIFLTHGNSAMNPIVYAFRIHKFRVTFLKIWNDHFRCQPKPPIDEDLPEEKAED
Source text: The test described below is used to determine the potency of test compounds to compete with the ligand […] for he Adenosine A-1 receptor prepared from rat brain membranes. Male Sprague-Dawley rats are sacrificed by decapitation and the membranes are isolated from whole animal brains. (See R. Goodman, M. Cooper. M. Gavish, and S. Synder, Guanine Nucleotide and Cation Regulation of the Binding of [3H]Diethylphenylxanthine to Adenosine A-1 Receptors in Brain Membrane, Molecular Pharmacology, 21, 329-335 (1982).
Membranes are homogenized (using polytron setting 7 for 10 seconds) in 25 volumes of ice-cold 50 mM Tris-HCl buffer, pH 7.7. […]
The incubation tubes, in triplicate, receive 100 µl of [3H]cyclohexyladenosine, 0.8 nM in the assay, 200 µl of test compounds at various concentrations over the range of 10^-10 M to 10^-6 M diluted with […] Tris-HCl buffer (pH 7.7), 0.2 ml of membrane suspension (8 mg wet weight) and in a final volume of 2 ml with Tris buffer. […] The filters are counted by liquid scintillation spectrometry in 8 ml of Omniflour containing 5% Protosol.
Specific binding of [3H]cyclohexyladenosine is measured as the excess over blanks taken in the presence of 10^-5 M 2-chloroadenosine. Total membrane-bound radioactivity is about 5% of that added to the test tubes. […] Protein content of the membrane suspension is determined by the method of Lowry, et al., Ibid, 265. […]

A-2 receptor = settings: rat brain slice assay; cited from earlier work

| Ki (adenosine A-2 receptors) [µM] | A-1 Ki/A-2 Ki (adenosine A-2 receptors) | Ki (Adenosine A-1 receptor) [µM] | Compound | Ki (A-2 receptor) [µM] |
| --- | --- | --- | --- | --- |
| 0.0035 | 2400 | 8.4 | C[C@H](Cc1ccccc1)Nc1nc(N)c2ncn([C@@H]3O[C@H](CO)[C@@H](O)[C@H]3O)c2n1 [Compound 1, (R)-2-[(phenylisopropyl)amino]adenosine] |  |
| 0.158 | 37 | 5.8 | C[C@@H](Cc1ccccc1)Nc1nc(N)c2ncn([C@@H]3O[C@H](CO)[C@@H](O)[C@H]3O)c2n1 [Compound 2, (S)-2-[(phenylisopropyl)amino]adenosine] |  |
|  |  |  | CCCn1c(=O)c2[nH]c(-c3ccc(OCC(=O)O)cc3)nc2n(CCC)c1=O [XCC, carboxylic acid congener of 8-phenyl-1,3-dipropylxanthine] | 0.034 ± 0.013 |
